Laboratory results from publication PMC9814205, “Targeting undruggable carbohydrate recognition sites through focused fragment library design” (Communications Chemistry, 2022).
“Also recorded” adds a separate entry of the source.

Assays:
Langerin and DC-SIGN = conditions: cited from earlier work
DC-SIGN = conditions: stated in SI text, method and reference not given; cited from earlier work
LecA [1] = target: T1, LecA (Pseudomonas aeruginosa, UniProt Q05097); conditions: positive control in FP assay, unit inferred; cited from earlier work
T1 construct: made in house
T1 sequence (Q05097 whole entry): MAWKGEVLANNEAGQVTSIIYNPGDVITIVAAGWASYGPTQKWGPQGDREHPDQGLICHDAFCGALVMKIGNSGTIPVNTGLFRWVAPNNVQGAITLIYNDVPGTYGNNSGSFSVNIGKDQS

5FW LecA (PA-IL) = target: T2, 5FW LecA (PA-IL) (Pseudomonas aeruginosa, UniProt Q05097); assay: PrOF NMR with 5-fluorotryptophan-labeled LecA; type: binding
T2 construct: made in house
T2 sequence (Q05097 2-122): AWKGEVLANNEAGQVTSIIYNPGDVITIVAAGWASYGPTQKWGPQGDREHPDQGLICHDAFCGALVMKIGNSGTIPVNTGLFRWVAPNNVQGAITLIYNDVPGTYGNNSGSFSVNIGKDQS
Description: PrOF NMR was performed as reported previously. Briefly, 150 µM 5FW LecA was recorded alone and in the presence of DMSO or 2–4 mM compounds in TBS/Ca^2+ buffer. The difference in chemical shift perturbations of W42 in 5FW LecA free vs bound forms was followed to determine Kd values of compounds. The Kd values were calculated according to the one-site-binding model in Origin(Pro) 2020b (OriginLab Corp., USA) from two or three independent titrations. Ligand efficiency values were calculated according to Eq. (1) for a temperature of 310 K.

DC-SIGN CRD (CD209) = target: T3, DC-SIGN CRD (CD209) (Homo sapiens, UniProt Q9NNX6); assay: 1H-15N HSQC NMR with 15N DC-SIGN CRD; type: binding
T3 construct: the carbohydrate recognition domain (CRD) of DC-SIGN in ^1H-^15N HSQC/TROSY NMR experiments; made in house
T3 sequence (Q9NNX6 263-378 limits assumed): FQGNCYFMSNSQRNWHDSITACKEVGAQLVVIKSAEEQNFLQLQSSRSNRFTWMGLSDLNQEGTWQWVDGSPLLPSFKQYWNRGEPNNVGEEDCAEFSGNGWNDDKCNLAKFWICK
Description: (§1) The ^1H-^15N TROSY pulse sequence trosyf3gpphsi19 with 128 increments and 32 scans per increment was applied for 0.15 mM ^15N LecA and 0.07 mM LecB in HBS/Ca^2+ buffer (20 mM HEPES pH 7.4, 150 mM NaCl, 10 mM CaCl2, 10% D2O and 100 µM sodium trimethylsilylpropanesulfonate (DSS) as internal reference) at 310 K. The ^1H-^15N HSQC pulse sequence hsqcf3gpph19 with 128 increments and 8 scans per increment was applied for 0.1 mM ^15N DC-SIGN and Langerin CRD in HBS/Ca^2+ buffer at 298 K. For screening of 650 non-fluorinated fragments of the general library against ^15N LecA, a mix of 10 compounds at 1 mM each was combined with 0.15 mM ^15N LecA in HBS/Ca^2+ buffer (20 mM HEPES pH 7.4, 150 mM NaCl, 10 mM CaCl2, 10% D2O and 100 µM sodium trimethylsilylpropanesulfonate (DSS) as internal reference, whereas the fragments with the MBP scaffolds were validated separately at 1 mM. Similarly, 9 nonfluorinated fragments from the MBP library were screened against ^15N-labeled DC-SIGN, LecA and LecB. To validate the fragment binding to proteins, we recorded ^1H-^15N HSQC and TROSY NMR of proteins in the presence of DMSO as negative control and 2 mM fragments in HBS/Ca^2+ buffer. Natural ligands were used as positive controls at 1 mM MeGal, MeFuc and 30 mM D-mannose to LecA/LecB and DC-SIGN CRD/Langerin CRD, respectively. Titration experiments with ^15N-labeled DC-SIGN CRD or LecB were recorded in HBS/Ca^2+ buffer with 30 mM CaCl2 and 0.25 to 4–8 mM malonic acid derivatives. The Kd values were calculated according to the one-site-binding model in Origin(Pro) 2020b (OriginLab Corp., USA). Ligand efficiency calculations were done according to Eq. (1) for a temperature of 298 K and 310 K for DC-SIGN CRD and LecB, respectively.1 LE=RTlnKd/HA, with the temperature T [K], the gas constant R [kcal mol^−1 K^−1], and the number of non-hydrogen atoms HA[56].
All data were processed with NMRpipe[65] and analyzed with CcpNmr analysis. For data analysis, the protein fingerprint of ^15N DC-SIGN (Table S7) or Langerin CRD was assigned as reported previously. The ^1H-^15N TROSY resonances of ^15N LecA and ^15N LecB were indexed with IDs due to a lack of protein backbone resonance assignment (Tables S8-S9). Next, resonance IDs from protein spectra were transferred to the spectra obtained in the presence of compounds in order to compare the changes in chemical shift perturbations for the fast exchange peaks. The changes in chemical shift perturbations (CSPs) were calculated according to Eq. (2):2 △δ=1/2△δH2+α△δN^2 in which δ is the difference in chemical shift (in ppm) and α is an empirical weighting factor of 0.14 for all amino acid backbone resonances. The threshold value was set based on three independent measurements of reference spectra to 0.01 ppm for LecA, LecB, DC-SIGN CRD and Langerin CRD.

LecB (PA-IIL) = target: T4, LecB (PA-IIL) (Pseudomonas aeruginosa, UniProt Q9HYN5); assay: 1H-15N TROSY NMR with 15N LecB; type: binding
T4 construct: made in house
T4 sequence (Q9HYN5 entry or part of it): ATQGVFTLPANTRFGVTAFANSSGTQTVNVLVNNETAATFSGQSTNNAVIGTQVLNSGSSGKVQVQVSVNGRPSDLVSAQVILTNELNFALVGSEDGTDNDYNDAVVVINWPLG
Description: as §1, with “Ligand efficiency calculations were done according to Eq. (1) for a temperature of 298 K and 310 K for DC-SIGN CRD and LecB, respectively.1 LE=RTlnKd/HA, with the temperature T [K], the gas constant R [kcal mol^−1 K^−1], and the number of non-hydrogen atoms HA[56].” left out
All data were processed with NMRpipe[65] and analyzed with CcpNmr analysis. […] The changes in chemical shift perturbations (CSPs) were calculated according to Eq. (2):2 △δ=1/2△δH2+α△δN^2 in which δ is the difference in chemical shift (in ppm) and α is an empirical weighting factor of 0.14 for all amino acid backbone resonances. […]

DC-SIGN^+ Raji cells = target: T5, DC-SIGN^+ Raji cells (Homo sapiens, UniProt Q9NNX6); assay: cellFy cell-based assay, FITC-dextran binding by flow cytometry; conditions: D-mannose positive control
T5 construct: expressed in transfected cells; host or cells: Raji cells (DC-SIGN+)
T5 sequence (Q9NNX6 1-404): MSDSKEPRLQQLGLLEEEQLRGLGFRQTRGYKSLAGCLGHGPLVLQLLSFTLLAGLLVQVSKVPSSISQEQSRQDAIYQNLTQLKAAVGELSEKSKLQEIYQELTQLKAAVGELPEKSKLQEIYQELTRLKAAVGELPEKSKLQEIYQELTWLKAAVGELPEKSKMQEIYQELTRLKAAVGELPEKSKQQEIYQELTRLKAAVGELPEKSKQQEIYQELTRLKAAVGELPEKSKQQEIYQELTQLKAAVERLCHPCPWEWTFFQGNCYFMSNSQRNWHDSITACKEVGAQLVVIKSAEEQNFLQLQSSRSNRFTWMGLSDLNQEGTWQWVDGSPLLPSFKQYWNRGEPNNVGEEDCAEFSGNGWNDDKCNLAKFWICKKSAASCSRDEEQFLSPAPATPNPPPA
Description: (§2) The cellFy experiments using Langerin^+ and DC-SIGN^+ Raji cell lines were performed as described before. Briefly, 50k cells were plated in a 96-well plate (clear, round bottom; Greiner Bio-One and mixed with varying concentrations of malonates 58, D-mannose and 0.025 mg mL^−1 FITC-conjugated dextran (500 kDa, Sigma Aldrich) in a final volume of 50 µL following incubation for 30 min on ice. After centrifugation at 500 g for 3 min at 4 °C, the supernatant was discarded. After washing cells were treated with 50 µL 4 % paraformaldehyde (Roti-Histofix, Carl Roth) for 20 min on ice and resuspended in 100 µL fresh culture medium. The fluorescence of cells was measured by flow cytometry (MACSQuant Analyzer 16). Data was analyzed in FlowJo.

Raji cells = assay: Cytotoxicity observed in cellFy; type: cell-based; conditions: at low concentrations; up to 10 mM
Description: as §2

LecA [2] = target: T1, LecA; conditions: carbohydrate ligand; cited from earlier work

Structure (SMILES): OC[C@H]1OC(O)[C@@H](O)[C@@H](O)[C@@H]1O (stereo partly drawn) [D-mannose]
- Kd (Langerin and DC-SIGN): 3500 to 6100 µM
- Kd (DC-SIGN): 3000 µM

Structure (SMILES): CC(=O)N[C@H]1C(O)O[C@H](CO)[C@H](O)[C@@H]1O (some centres unmarked) [GalNAc]
- IC50 (LecA [1]): 1230 ± 200 µM

Structure (SMILES): O=C(O)C(C(=O)O)C1CCC(F)(F)C1 (centres unmarked) [compound 58]
- binding to 5FW LecA (perturbation of W42) in PrOF NMR (5FW LecA (PA-IL); 2 mM compound): perturbed W42
- W2 [ppm] (5FW LecA (PA-IL); 19F resonance of 0.15 mM 5FW LecA with 2 mM compound, DMSO 121.43): 121.47 ppm
- W33 [ppm] (5FW LecA (PA-IL); 19F resonance of 0.15 mM 5FW LecA with 2 mM compound, DMSO 121.67): 121.77 ppm
- W84 [ppm] (5FW LecA (PA-IL); 19F resonance of 0.15 mM 5FW LecA with 2 mM compound, DMSO 123.50): 123.53 ppm
- Kd (DC-SIGN CRD (CD209); 15N DC-SIGN CRD, titration, one-site binding model, 30 mM CaCl2): 1200 ± 500 µM
- LE (DC-SIGN CRD (CD209); ligand efficiency calculated from Kd for DC-SIGN CRD, 298 K): 0.28 kcal mol^−1 HA^−1
- Kd (LecB (PA-IIL)): 1200 ± 400 µM
- LE (LecB (PA-IIL); ligand efficiency calculated from Kd for LecB, 310 K): 0.29 kcal mol^−1 HA^−1
- inhibition of FITC-dextran binding / binding to DC-SIGN^+ cells (DC-SIGN^+ Raji cells): inhibited FITC-dextran binding to DC-SIGN similarly to D-mannose; also recorded: specifically bound to DC-SIGN^+ cells
- cytotoxicity (Raji cells): negligible cytotoxicity; also recorded: low cytotoxicity

Structure (SMILES): OC[C@H]1O[C@H](O)[C@H](O)[C@@H](O)[C@H]1O [α-D-galactose]
- Kd (LecA [2]): 50 µM
